Measured values reported in paper PMC5715787, “Structural basis for antibody recognition of the NANP repeats in Plasmodium falciparum circumsporozoite protein” (Proceedings of the National Academy of Sciences of the …, 2017).

Columns and labels:
Fab317 = assay: ITC affinity measurement of peptides to Fab317; type: binding, human; settings: for Kd / No. of sites: ITC, 25 °C, Dulbecco's PBS, Fab317 9.7 μM in cell, single-site model
Protocol: (§1) ITC affinity measurements were performed using a MicroCal Auto-iTC200 instrument (GE Healthcare). […]
(§2) General. All peptides were ordered from Innopep Inc. with a 10-μg/mL solution of the Fab of interest in blocking buffer. The purity of >98% and contained chlorine counter ions. The pep- membrane was then washed three times for 5 min each in TBST tides have N-terminal acetylation and C-terminal amidation to buffer, after which it was incubated for 2 h with an anti-human eliminate charges at the peptide termini. Fab genes were codon Fab secondary antibody conjugated to HRP (Sigma-Aldrich) at a optimized, synthesized, and cloned into pHCMV3 vectors by 1:20,000 dilution in blocking buffer. […]
(§3) Antibodies 311 and 317 were selected forITC. A MicroCal Auto-iTC200 (GE Healthcare) was used to structural studies because of their functional activity, high avidity perform ITC measurements. Before the experiments, all proteins index, and similar heavy-chain germline genes. were extensively dialyzed against Dulbecco’s PBS (Thermo Evaluation of the Protective Activity of mAbs. mAbs (100 μg for Fischer). The peptides were placed in the syringe at a concentration Ab311 and 300 μg for Ab317 and Ab2A10) against the NANP of 122μM for Ac-NPNANPNA-NH2, 116 μM for Ac-repeats of P. falciparum CSP were administered to 7- to 8-wk-old NPNANPNANPNA-NH2,89μM for Ac-[…]- […]
(§4) C57BL/6 mice (five mice per group) by i.v. injection [in 200 μLof NH2, and 110 μM for Ac-DPNANPNVDPNA-NH2, whereas the […]
(§5) PBS (pH 7.4)]. The mice were challenged 5–10 min later by i.v. concentrations of Fab fragments in the cell were 10.3 and 9.7 μM injection with 2,000 P. berghei chimeric sporozoites expressing for Fab311 and Fab317, respectively. The Fab and peptide P. falciparum CSP (3D7 strain) generated as previously described concentrations were determined by UV absorbance at 280 nm (22). Forty hours later, livers were harvested, and RNA was and 205 nm. Molar extinction coefficients for the peptides were isolated to quantify the malaria-specific 18s rRNA levels by real- estimated using a previously published method (35). Experi-time PCR (34). Inhibition of parasite development was calcu- ments were carried out in triplicate at 25 °C, except for lated by comparing the parasite liver burdens of experimental Fab317 binding to Ac-[…]-NH2, which was […]
(§6) and naive control mice. The statistical analyses were done with done in duplicate, and consisted of 16 injections of 2.45 μL each, the Mann–Whitney U test. Data were plotted using GraphPad with injection duration of 4.9 s, inject io n interval of 180 s, and Prism 6.0 software. No samples were excluded from statistical reference power of 5 μCa l. Fi tt in g of the integrate d titrati on analyses. peaks was performed with Origin 7.0 software using a single-site binding model. The first data point and any outliers were Expression and Purification of Recombinant CSP. The rsCSP con- excluded from the fit. […]
(§7) Two 1-L NaCl, 2.7 mM KCl, pH 8.0) with a 5:1 molar ratio of (NPNA)3 cultures were inoculated the next day with 25 mL overnight peptide to Fab. Crystals were grown using sitting-drop vapor culture and were grown at 37 °C. When the optical density at diffusion with a well solution containing 0.1 M MES (pH 6.0), 600 nm reached a value of 1, the cultures were induced with 36% PEG400, 5% PEG3000 for the Fab311–peptide complex, 1 mM isopropyl β-D-1-thiogalactopyranoside for 6 h. The cells and 0.1 M sodium citrate (pH 4.0), 1 M lithium chloride, 20% then were harvested and lysed by microfluidization. The lysate PEG6000 for the Fab317–peptide complex. Crystals were grown was incubated overnight with Ni cOmplete resin (Roche) and at 298 K and typically appeared within 3 d. Fab311–peptide was eluted using a buffer containing 200 mM imidazole. Typi- crystals were cryo-cooled without additional cryoprotection, cally, 10 mg of protein was obtained per 2 L of culture. Samples while Fab317–peptide crystals were cryoprotected by soaking in […]

Fab311 = assay: ITC affinity measurement of peptides to Fab311; type: binding, human; settings: for affinity/Kd compared with the (NPNA)3 peptide: Fab311, ITC, change vs (NPNA)3; for Kd / No. of sites: ITC, 25 °C, Dulbecco's PBS, Fab311 10.3 μM in cell, peptide 89–122 μM in syringe, single-site model, average and SD of triplicate experiments
Protocol: as §1, §2, §3, §4, §5, §6, §7

[1] = peptide 110–122 μM in syringe, average and SD of triplicate experiments
[2] = peptide 89 μM in syringe, duplicate experiments

`CC(=O)N[C@@H](CC(N)=O)C(=O)N1CCC[C@H]1C(=O)N[C@@H](CC(N)=O)C(=O)N[C@@H](C)C(=O)N[C@@H](CC(N)=O)C(=O)N1CCC[C@H]1C(=O)N[C@@H](CC(N)=O)C(=O)N[C@@H](C)C(N)=O` [(NPNA)2, Ac-NPNANPNA-NH2] was tested, and the “Kd increase compared with (NPNA)3” value (Fab317; Fab317, ITC, vs (NPNA)3) was 2.2 fold, the Kd (Fab317; [1]) was 173 ± 8 nM and the No. of sites (Fab317; [1]) was 1.41 ± 0.05. For the same compound, the “affinity/Kd compared with the (NPNA)3 peptide” value (Fab311) was “almost identical to that of the (NPNA)3 peptide”, the Kd (Fab311) was 296 ± 19 nM and the No. of sites (Fab311) was 1.50 ± 0.08.
For `CC(=O)N[C@@H](CC(N)=O)C(=O)N1CCC[C@H]1C(=O)N[C@@H](CC(N)=O)C(=O)N[C@@H](C)C(=O)N[C@@H](CC(N)=O)C(=O)N1CCC[C@H]1C(=O)N[C@@H](CC(N)=O)C(=O)N[C@@H](C)C(=O)N[C@@H](CC(N)=O)C(=O)N1CCC[C@H]1C(=O)N[C@@H](CC(N)=O)C(=O)N[C@@H](C)C(N)=O` [(NPNA)3, Ac-NPNANPNANPNA-NH2], the Kd (Fab317; [1]) was 78 ± 16 nM, the No. of sites (Fab317; [1]) was 1.27 ± 0.02 and the Kd (Fab311) was 305 ± 60 nM. It also gave a No. of sites (Fab311) of 0.74 ± 0.02.
In the case of “Ac-DPNANPNVDPNA-NH2 [DPNANPNVDPNA, Ac-DPNANPNVDPNA-NH2]”, the Kd (Fab317; [1]) is reported as 448 ± 68 nM, the No. of sites (Fab317; [1]) is reported as 1.64 ± 0.05 and the “affinity/Kd compared with the (NPNA)3 peptide” value (Fab311) is reported as “approximately fivefold lower affinity”. It also gave a Kd (Fab311) of 1370 ± 390 nM and a No. of sites (Fab311) of 1.20 ± 0.03.
With “Ac-NPNVDPNANPNV-NH2 [NPNVDPNANPNV, Ac-NPNVDPNANPNV-NH2]” the “relative affinity (in words)” value (Fab317; Fab317, ITC, NVDP-containing peptides, comparator not clearly stated) was “substantially lower”, the Kd (Fab317; [2]) was 12100 ± 2490 nM and the No. of sites (Fab317; [2]) was 1.72 ± 0.13. For the same compound, the “affinity/Kd compared with the (NPNA)3 peptide” value (Fab311) was “approximately fivefold lower affinity”, the Kd (Fab311) was 1790 ± 189 nM and the No. of sites (Fab311) was 1.24 ± 0.02.
